Assay: xn = mol fraction of the nth substance listed
Conditions: 100 kPa, Liquid; for viscosity: Concentric cylinders viscometry; for mass density: Vibrating tube method

CN1CCC[C@H]1c1cccnc1 [(-)-3-(N-methylpyrrolidino)pyridine] + CCCCO
Conditions	mass density [kg/m3]	viscosity [mPa·s]
293.15 K, x1 = 0.1	845.043	3.049
293.15 K, x1 = 0.196	874.098	3.209
293.15 K, x1 = 0.3	901.216	3.408
293.15 K, x1 = 0.3931	922.268	3.601
293.15 K, x1 = 0.5	943.285	3.829
293.15 K, x1 = 0.593	960.358	4.027
293.15 K, x1 = 0.7	975.308	4.242
293.15 K, x1 = 0.7931	987.593	4.412
293.15 K, x1 = 0.9	1000.01	4.578
293.15 K, x1 = 1	1010.23	4.694
298.15 K, x1 = 0.1	841.123	2.692
298.15 K, x1 = 0.196	870.112	2.833
298.15 K, x1 = 0.3	897.182	2.999
298.15 K, x1 = 0.3931	918.206	3.155
298.15 K, x1 = 0.5	939.205	3.337
298.15 K, x1 = 0.593	956.271	3.494
298.15 K, x1 = 0.7	971.222	3.666
298.15 K, x1 = 0.7931	983.509	3.803
298.15 K, x1 = 0.9	995.934	3.942
298.15 K, x1 = 1	1006.16	4.048
303.15 K, x1 = 0.1	837.185	2.374
303.15 K, x1 = 0.196	866.114	2.498
303.15 K, x1 = 0.3	893.14	2.642
303.15 K, x1 = 0.3931	914.139	2.776
303.15 K, x1 = 0.5	935.124	2.931
303.15 K, x1 = 0.593	952.186	3.062
303.15 K, x1 = 0.7	967.138	3.205
303.15 K, x1 = 0.7931	979.432	3.319
303.15 K, x1 = 0.9	991.866	3.433
303.15 K, x1 = 1	1002.1	3.518
308.15 K, x1 = 0.1	833.229	2.105
308.15 K, x1 = 0.196	862.102	2.219
308.15 K, x1 = 0.3	889.089	2.346
308.15 K, x1 = 0.3931	910.068	2.461
308.15 K, x1 = 0.5	931.041	2.592
308.15 K, x1 = 0.593	948.102	2.702
308.15 K, x1 = 0.7	963.059	2.821
308.15 K, x1 = 0.7931	975.36	2.917
308.15 K, x1 = 0.9	987.806	3.013
308.15 K, x1 = 1	998.055	3.088
313.15 K, x1 = 0.1	829.249	1.885
313.15 K, x1 = 0.196	858.073	1.99
313.15 K, x1 = 0.3	885.026	2.103
313.15 K, x1 = 0.3931	905.989	2.203
313.15 K, x1 = 0.5	926.955	2.316
313.15 K, x1 = 0.593	944.017	2.41
313.15 K, x1 = 0.7	958.981	2.514
313.15 K, x1 = 0.7931	971.292	2.598
313.15 K, x1 = 0.9	983.751	2.686
313.15 K, x1 = 1	994.014	2.758
318.15 K, x1 = 0.1	825.24	1.683
318.15 K, x1 = 0.196	854.022	1.777
318.15 K, x1 = 0.3	880.948	1.88
318.15 K, x1 = 0.3931	901.899	1.97
318.15 K, x1 = 0.5	922.862	2.07
318.15 K, x1 = 0.593	939.982	2.152
318.15 K, x1 = 0.7	954.903	2.239
318.15 K, x1 = 0.7931	967.226	2.304
318.15 K, x1 = 0.9	979.704	2.367
318.15 K, x1 = 1	989.984	2.411
323.15 K, x1 = 0.1	821.198	1.495
323.15 K, x1 = 0.196	849.946	1.603
323.15 K, x1 = 0.3	876.851	1.708
323.15 K, x1 = 0.3931	897.795	1.793
323.15 K, x1 = 0.5	918.759	1.882
323.15 K, x1 = 0.593	935.834	1.952
323.15 K, x1 = 0.7	950.822	2.025
323.15 K, x1 = 0.7931	963.162	2.083
323.15 K, x1 = 0.9	975.66	2.143
323.15 K, x1 = 1	985.962	2.195

Source: the NIST ThermoML archive (doi:10.1016/j.jct.2016.07.005)
